Biological target: human p38alfa (SAPKa) enzyme (Homo sapiens (Human), UniProt Q16539)
Test: Inhibition Assay: p38 enzymatic activity (ATF2 phosphorylation, FRET)
Assay type: biochemical
Settings: read-out: p38α IC50

human p38alfa (SAPKa) enzyme, sequence (Q16539 whole entry): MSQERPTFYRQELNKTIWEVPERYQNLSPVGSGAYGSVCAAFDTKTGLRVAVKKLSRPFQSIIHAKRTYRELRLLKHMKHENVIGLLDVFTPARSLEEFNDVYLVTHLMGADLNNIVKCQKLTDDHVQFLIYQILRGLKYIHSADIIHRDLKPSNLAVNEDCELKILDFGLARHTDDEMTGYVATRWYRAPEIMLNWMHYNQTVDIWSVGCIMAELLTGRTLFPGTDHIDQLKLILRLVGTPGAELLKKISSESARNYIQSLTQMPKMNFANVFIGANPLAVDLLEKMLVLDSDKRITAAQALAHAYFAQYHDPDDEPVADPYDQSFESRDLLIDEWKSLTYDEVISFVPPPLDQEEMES

Structure (SMILES)	IC50 [nM]
Cc1nnc(-c2ccc(C)c(-c3ccc4c(c3)NC(=O)C43CCCC3)c2)[nH]1 [Example 53, 6′-(2-Methyl-5-(5-methyl-4H-1,2,4-triazol-3-yl)phenyl)spiro[cyclopentane-1,3′-indolin]-2′-one]	7.5
Cc1ccc(C(N)=O)cc1-c1ccc2c(c1)NC(=O)C2(C)C [Example 7, 3-(3,3-dimethyl-2-oxoindolin-6-yl)-4-methylbenzamide]	80
Cc1ccc(C(=O)Nc2ccon2)cc1-c1ccc2c(c1)NC(=O)C2(C)C [Example 19, 3-(3,3-Dimethyl-2-oxo-2,3-dihydro-1H-indol-6-yl)-N-isoxazol-3-yl-4-methylbenzamide]	0.04
Cc1nnc(-c2ccc(C)c(-c3ccc4c(c3)NC(=O)C43CCC3)c2)[nH]1 [Example 54, 6′-[2-Methyl-5-(5-methyl-4H-1,2,4-triazol-3-yl)phenyl]spiro[cyclobutane-1,3′-indol]-2′(1′H)-one]	18
Cc1ccc(C(=O)Nc2ccon2)cc1-c1ccc2c(c1)NC(=O)C21CCOCC1 [Example 23, N-Isoxazol-3-yl-4-methyl-3-(2-oxo-1,2,2′,3′,5′,6′-hexahydrospiro[indole-3,4′-pyran]-6-yl)benzamide]	0.06
Cc1ccc(C(=O)NC2CC2)cc1-c1ccc2c(c1)NC(=O)C21CCC(F)(F)CC1 [Example 32, N-Cyclopropyl-3-(4,4-difluoro-2′-oxospiro[cyclohexane-1,3′-indoline]-6′-yl)-4-methylbenzamide]	1.8
Cc1ccc(C(=O)NCC2CC2)cc1-c1ccc2c(c1)NC(=O)C2(C)C [Example 18, N-(Cyclopropylmethyl)-3-(3,3-dimethyl-2-oxoindolin-6-yl)-4-methylbenzamide]	27
Cc1ccc(C(=O)NC2CC2)cc1-c1ccc2c(c1)NC(=O)C21CCC(C)(O)CC1 (stereo not drawn) [Example 37, N-cyclopropyl-3-(4-hydroxy-4-methyl-2′-oxospiro[cyclohexane-1,3′-indoline]-6′-yl)-4-methylbenzamide]	0.8
Cc1c(F)cc(C(=O)NC2CC2)cc1-c1ccc2c(c1)NC(=O)C21CCN(S(C)(=O)=O)CC1 [Example 31, N-cyclopropyl-3-fluoro-4-methyl-5-(1′-(methylsulfonyl)-2-oxospiro[indoline-3,4′-piperidine]-6-yl)benzamide]	1
Cc1ccc(C(=O)NC2CC2)cc1-c1ccc2c(c1)NC(=O)C21CCC(O)CC1 (stereo not drawn) [Example 34, N-cyclopropyl-3-(4-hydroxy-2′-oxospiro[cyclohexane-1,3′-indoline]-6′-yl)-4-methylbenzamide]	1.4
Cc1ccc(C(=O)NC2CC2)cc1-c1ccc2c(c1)NC(=O)C21CCOCC1 [Example 22, N-Cyclopropyl-4-methyl-3-(2-oxo-2′,3′,5′,6′-tetrahydrospiro[indoline-3,4′-pyran]-6-yl)benzamide]	1.4
Cc1nnc(-c2ccc(C)c(-c3ccc4c(c3)NC(=O)C43CCCC3)c2)o1 [Example 70, 6′-(2-Methyl-5-(5-methyl-1,3,4-oxadiazol-2-yl)phenyl)spiro[cyclopentane-1,3′-indolin]-2′-one]	32
Cc1nnc(-c2ccc(C)c(-c3ccc4c(c3)NC(=O)C43CCC(F)(F)CC3)c2)[nH]1 [Example 63, 4,4-Difluoro-6′-(2-methyl-5-(5-methyl-4H-1,2,4-triazol-3-yl)phenyl)spiro[cyclohexane-1,3′-indolin]-2′-one]	2
Cc1ccc(C(=O)NC2CC2)cc1-c1ccc2c(c1)NC(=O)C21CCS(=O)(=O)CC1 [Example 27, N-Cyclopropyl-3-(1′,1′-dioxido-2-oxo-1,2,2′,3′,5′,6′-hexahydrospiro[indole-3,4′-thiopyran]-6-yl)-4-methylbenzamide]	6.7

Continued, values first:

IC50 [nM]	Structure (SMILES)
62	Cc1ccc(C(=O)NC2CC2)cc1-c1cnc2c(c1)NC(=O)C2(C)C [Example 45, N-Cyclopropyl-3-(3,3-dimethyl-2-oxo-2,3-dihydro-1H-pyrrolo[3,2-b]pyridin-6-yl)-4-methylbenzamide]
5.6	Cc1nnc(-c2ccc(C)c(-c3ccc4c(c3)NC(=O)C43CCC(F)(F)CC3)c2)o1 [Example 72, 4,4-Difluoro-6′-(2-methyl-5-(5-methyl-1,3,4-oxadiazol-2-yl)phenyl)spiro-[cyclohexane-1,3′-indolin]-2′-one]
5.7	Cc1nnc(-c2ccc(C)c(-c3ccc4c(c3)NC(=O)C43CCC(O)CC3)c2)o1 (stereo not drawn) [Example 73, 4-hydroxy-6′-(2-methyl-5-(5-methyl-1,3,4-oxadiazol-2-yl)phenyl)spiro[cyclohexane-1,3′-indolin]-2′-one]
8	Cc1nnc(-c2cc(F)c(C)c(-c3ccc4c(c3)NC(=O)C43CCOCC3)c2)[nH]1 [Example 61, 6-[3-Fluoro-2-methyl-5-(5-methyl-4H-1,2,4-triazol-3-yl)phenyl]-2′,3′,5′,6′-tetrahydro-spiro[indole-3,4′-pyran]-2(1H)-one]
72	Cc1ccc(C(=O)NC2CC2)cc1-c1ncc2c(n1)NC(=O)C21CCCC1 [Example 52, N-Cyclopropyl-4-methyl-3-(6′-oxo-6′,7′-dihydrospiro[cyclopentane-1,5′-pyrrolo[2,3-c]pyrimidin]-2′-yl)benzamide]
1	Cc1ccc(C(=O)NC2CC2)cc1-c1ccc2c(c1)NC(=O)C21CCC(N2CCOCC2)CC1 (stereo not drawn) [Example 40, N-cyclopropyl-4-methyl-3-(4-morpholino-2′-oxospiro[cyclohexane-1,3′-indoline]-6′-yl)benzamide]
8	Cc1nnc(-c2cc(F)c(C)c(-c3ccc4c(c3)NC(=O)C43CCC(C)(O)CC3)c2)[nH]1 (stereo not drawn) [Example 65, 6′-(3-fluoro-2-methyl-5-(5-methyl-4H-1,2,4-triazol-3-yl)phenyl)-4-hydroxy-4-methylspiro[cyclohexane-1,3′-indolin]-2′-one]
0.8	Cc1ccc(C(=O)NC2CC2)cc1-c1cc2c(cn1)C1(CCCC1)C(=O)N2 [Example 51, N-Cyclopropyl-4-methyl-3-(2′-oxo-1′,2′-dihydrospiro[cyclopentane-1,3′-pyrrolo[3,2-c]pyridin]-6′-yl)benzamide]
5.6	Cc1ccc(C(=O)NC2CC2)cc1-c1ccc2c(n1)NC(=O)C21CCCC1 [Example 43, N-Cyclopropyl-4-methyl-3-(2′-oxo-1′,2′-dihydrospiro[cyclopentane-1,3′-pyrrolo[2,3-b]pyridine]-6′-yl)benzamide]
9	Cc1ccc(-c2ncn[nH]2)cc1-c1ccc2c(c1)NC(=O)C21CCCC1 [Example 55, 6′-(2-Methyl-5-(4H-1,2,4-triazol-3-yl)phenyl)spiro[cyclopentane-1,3′-indolin]-2′-one]
4.7	Cc1nnc(-c2ccc(C)c(-c3ccc4c(c3)NC(=O)C43CCN(S(C)(=O)=O)CC3)c2)[nH]1 [Example 67, 6-(2-methyl-5-(5-methyl-4H-1,2,4-triazol-3-yl)phenyl)-1′-(methylsulfonyl)spiro[indoline-3,4′-piperidin]-2-one]
10	Cc1nnc(-c2ccc(C)c(-c3ccc4c(c3)NC(=O)C43CCOCC3)c2)[nH]1 [Example 59, 6-(2-Methyl-5-(5-methyl-4H-1,2,4-triazol-3-yl)phenyl)-2′,3′,5′,6′-tetrahydrospiro[indoline-3,4′-pyran]-2-one]
13	Cc1ccc(C(=O)NC2CC2)cc1-c1cnc2c(c1)NC(=O)C21CCOCC1 [Example 47, N-Cyclopropyl-4-methyl-3-(2′-oxo-1′,2,2′,3,5,6-hexahydrospiro[pyran-4,3′-pyrrolo-[3,2-b]pyridin]-6′-yl)benzamide]

Source: patent publication US8772288B2, “Substituted spiro[cycloalkyl-1,3′-indo]-2′(1′H)-one derivatives and their use as P38 mitogen-activated kinase inhibitors” (Almirall, S.A., priority 2008, dated 2014)
